{
  "source": "patent US10800824B2",
  "about": "“AIMP1 protein fragment and skin-protecting composition containing same as active ingredient” (NEOMICS CO., LTD., priority 2016, dated 2020)",
  "key": {"Raw 264.7 cells": {"tested_on": "Raw 264.7 cells", "assay": "TNF-alpha ELISA assay (TNF-alpha secretion)", "format": "cell-based", "conditions": "10 μM, 6 hours, FIG. 4", "procedure": "Raw 264.7 cells (ATCC TIB-71; 3,000 cells/well) were cultured for 12 hours in DMEM medium containing 10% serum in a 96-well plate, and then cultured in serum-free medium for about 3 hours. Then, Neo-Pep polypeptide (SEQ ID NO: 1) and its fragments (SEQ ID NOS: 2 to 4) were added to the DMEM medium with the concentration of 10 μM each, and then cultured for 6 hours.\nThen, the medium was collected and centrifuged at 1,000 g for 10 minutes, and secreted TNF-α was detected using a TNF-α ELISA assay (BD Biosciences, USA) according to the manufacturer's instructions."}, "[1]": {"tested_on": "normal epithelium cells (vero)", "assay": "Cytotoxicity assay (Cell Counting Kit-8 assay) on normal epithelium cells", "format": "cell-based", "conditions": "10 μM, 24 hours, CCK-8, FIG. 3", "procedure": "To confirm the proliferation and cytotoxicity of the fibroblasts, the CCK-8 assay (Cell Counting Kit-8 assay) of Dojindo Molecular Technologies (Japan) was performed according to the manufacturer's instructions.\nFirst, human foreskin fibroblast (3,000 cells/well; Promocell) and normal epithelium cells (vero; 3,000 cells/well) were cultured in DMEM medium containing 10% serum in 96-well plates for 12 hours, and then cultured in serum-free medium for about 3 hours. Then, Neo-Pep polypeptide (SEQ ID NO: 1) and fragments thereof (SEQ ID NOS: 2 to 4) were added to the DMEM medium with the concentration of 10 μM each, and then cultured for 24 hours.\nThen, 10 μl of CCK-8 solution (Dojindo Molecular Technologies, Japan) was added to each well of the medium, and the absorbance was analyzed at 450 nm using a microplate reader according to the manufacturer's instructions."}},
  "note": "No end group written: not given here.",
  "data": [
    {"sequence": "AVLKRLEQKGAEADQIIEYLKQQVSLLKEKAILQATLREEK [Neo-Pep]", "values": [
      {"measurement": "secreted TNF-alpha level versus control group", "setting": "Raw 264.7 cells", "value": "very low and similar to that of control group"}
    ]},
    {"sequence": "IEYLKQQVSLLKEKA [Polypeptide S1400, IEYLKQQVSLLKEKA]", "values": [
      {"measurement": "secreted TNF-alpha level versus control group", "setting": "Raw 264.7 cells", "value": "very low and similar to that of control group"},
      {"measurement": "epithelium cell viability versus control group", "setting": "[1]", "value": "slightly lower"}
    ]},
    {"sequence": "KGAEADQIIEYLKQQ [Polypeptide S1300, KGAEADQIIEYLKQQ]", "values": [
      {"measurement": "secreted TNF-alpha level versus control group", "setting": "Raw 264.7 cells", "value": "very low and similar to that of control group"}
    ]},
    {"sequence": "RLEQKGAEADQIIEY [Polypeptide S1200, RLEQKGAEADQIIEY]", "values": [
      {"measurement": "secreted TNF-alpha level versus control group", "setting": "Raw 264.7 cells", "value": "very low and similar to that of control group"}
    ]}
  ]
}
